Data reported in patent US20250352500A1, “USE OF PHENOLIC ACIDS DERIVATIVES IN TREATING ISCHEMIC STROKE” (LANZHOU UNIVERSITY, priority 2022, published 2025).

Key:
Assay type in all cases: in vivo, male C57/BL mice
GFAP = GFAP protein Western blot in brain tissue; details: for GFAP protein expression reduced compared with MCAO group: 72 h ischemia-reperfusion, three days of administration, compound 2 100 mg/kg, compound 1 50 mg/kg
Description: (§1) Grouping and administration method: Male C57/BL mice weighing 23±1 g were randomly divided into sham operation group (SHAM), model group (MCAO), compound 2 group (100 mg/kg), and compound 1 group (50 mg/kg), with 10 mice in each group. Mice in the SHAM group underwent vascular isolation, but no […] was administered, and no treatment was given before or after surgery. The model group mice were constructed with MCAO models and were not treated before and after surgery. The treatment group was treated with compound 2 or compound 1 on the basis of the model group. Mice with a neurological score of 0 after reperfusion and those that died before 72 hours post-surgery were excluded. The administration time for animal behavior tests was seven times at 0 h, 1 day, 2 days, 3 days, 4 days, 5 days, and 6 days after reperfusion, while the administration time for other experiments was three times at 0 h, 1 day, and 2 days after reperfusion. The drug was administered through the tail vein, and the sham operation group and model group were given equal amounts of saline.
After 72 hours of ischemia-reperfusion, the protein expression level of GFAP, a marker of astrocytes in brain tissue, was detected with Western blot. The representative Western blot (WB) images of GFAP protein expression in the brain tissues of the sham operation group (SHAM), model group (MCAO), compound 2 group, and compound 1 group are shown in FIG. 6A, and the quantitative statistical results are shown in FIG. 6B. […] In this experiment, β-actin was used as an internal reference protein. n=3, data are mean±SEM, analyzed using one-way ANOVA and Tukey's HSD test. *P<0.05, **P<0.01, ***P<0.001. ^#P<0.05, ^##P<0.01, ^###P<0.001. * indicates comparison with the SHAM group, # indicates comparison with the compound 2 group.

IL-1β [1] = assay: ELISA of IL-1β in brain homogenate; details: 72 h, three days of administration, compound 2 100 mg/kg, compound 1 50 mg/kg
Description: as §1, with “The administration time for animal behavior tests was seven times at 0 h, 1 day, 2 days, 3 days, 4 days, 5 days, and 6 days after reperfusion, while the administration time for other experiments was three times at 0 h, 1 day, and 2 days after reperfusion. The drug was administered through the tail vein, and the sham operation group and model group were given equal amounts of saline.” left out
(§2) To investigate the effect of compounds on the expression of inflammatory factors after ischemia-reperfusion, this study used immunofluorescence experiments to observe the expression of TNF-α, IL-1β, IL-6, iNOS, and COX2 proteins in brain tissue. […] The concentrations of TNF-α, IL-1β, and IL-6 in brain homogenate were detected by enzyme-linked immunosorbent assay (ELISA), and the expression level of TNF-α protein in brain tissue was detected by Western blot.
After 72 hours of ischemia-reperfusion, the expression levels of inflammatory factors TNF-α, IL-1β, and IL-6 in the mouse brain homogenate were detected.

MCAO model mice [2] = assay: Zea-Longa neurological function score in MCAO model mice
Description: (§3) Male C57/BL mice weighing 23±1 g were randomly divided into sham operation group (SHAM), model group (MCAO) and drug administration groups (50 mg/kg, 100 mg/kg, 200 mg/kg), with 6 mice in each group. Mice in the SHAM group underwent vascular isolation, but no […] was administered, and no treatment was given before or after surgery. The model group mice were constructed with ischemic MCAO models, and no treatment was given before and after surgery. The drug administration group was treated with compound 2 on the basis of the model group. Mice with a neurological score of 0 after reperfusion and those that died before 72 hours post-surgery were excluded. The drugs were administered through the tail vein at 0, 1, and 2 days after reperfusion. The SHAM group and MCAO group were given equal volumes of saline.
The neurological function score reflects the neurological injury status of MCAO model mice. After 24 hours of modeling, the neurological function score was performed (refer to the Zea-Longa scoring screening method). Mice with scores of 1-3 were successfully modeled, and those with scores of 0 and 4 were excluded.
In this experiment, the Zea-Longa scoring method was used to score the sham hand group (SHAM), model group (MCAO), compound 2 (50 mg/kg) group, compound 2 (100 mg/kg) group, and compound 2 (200 mg/kg) group. The main scoring time points were before surgery, day 1, day 2, and day 3.

MCAO model mice [3] = assay: Cerebral infarction volume by TTC staining in MCAO model mice; details: for Cerebral infarction volume reduced compared with the model group: mean±SEM
Description: as §3
The cerebral infarction volumes of the sham-hand group (SHAM), model group (MCAO), compound 2 (50 mg/kg) group, compound 2 (100 mg/kg) group, and compound 2 (200 mg/kg) group in Example 2 were detected by TTC staining. […] The cerebral infarction volumes of mice in the different concentration groups were different.

MCAO model mice [4] = assay: Modified neurological severity score (mNSS, 14-point scale)
Description: as §1
In addition, the neurological deficit score (mNSS) method shown in the table above was used to score the neurological function of each group of mice on a 14-point scale. Neurobehavioral scores were assessed in mice of the SHAM group, MCAO group, Compound 2 group, and Compound 1 group on day 1, 3, 5, and 7 post-surgery. […]

MCAO model mice [5] = assay: Survival curve after ischemia-reperfusion; details: 100 mg/kg tail vein
Description: as §1
At the same time, the weight change and survival rate of mice after ischemia-reperfusion were analyzed.

IL-1β [6] = assay: RT-qPCR of IL-1β mRNA in brain tissue; details: 72 h, three days of administration, compound 2 100 mg/kg, P<0.01
Description: as §1, with “The administration time for animal behavior tests was seven times at 0 h, 1 day, 2 days, 3 days, 4 days, 5 days, and 6 days after reperfusion, while the administration time for other experiments was three times at 0 h, 1 day, and 2 days after reperfusion. The drug was administered through the tail vein, and the sham operation group and model group were given equal amounts of saline.” left out
as §2
(§4) After 72 hours of ischemia-reperfusion, the mRNA expression levels of TNF-α, IL-1β, IL-6, iNOS, and COX2 in brain tissue were detected and analyzed by RT-qPCR. […]

IL-6 = assay: RT-qPCR of IL-6 mRNA in brain tissue; details: 72 h, three days of administration, compound 2 100 mg/kg, P<0.01
Description: as §1, with “The administration time for animal behavior tests was seven times at 0 h, 1 day, 2 days, 3 days, 4 days, 5 days, and 6 days after reperfusion, while the administration time for other experiments was three times at 0 h, 1 day, and 2 days after reperfusion. The drug was administered through the tail vein, and the sham operation group and model group were given equal amounts of saline.” left out
as §2, §4

| Structure (SMILES) | GFAP protein expression reduced compared with MCAO group (GFAP) | Decrease in IL-1β expression compared with MCAO group (IL-1β [1]) | Zea-Longa neurological score compared with the model group (MCAO model mice [2]; 24 hours of reperfusion, 50, 100, 200 mg/kg via tail vein) | Zea-Longa neurological score compared with the model group (MCAO model mice [2]; after 48 hours, 100 mg/kg via tail vein, P<0.001) | Zea-Longa neurological score compared with the model group (MCAO model mice [2]; after 48 hours, three concentrations (50, 100, 200 mg/kg) via tail vein) | Zea-Longa neurological score compared with the model group (MCAO model mice [2]; after 72 hours of reperfusion, 100 mg/kg via tail vein, P<0.001) | Cerebral infarction volume reduced compared with the model group (MCAO model mice [3]; 100 mg/kg via tail vein at 0, 1, 2 days after reperfusion, P<0.001) | Cerebral infarction volume smaller at 100 mg/kg compared with 50 mg/kg (MCAO model mice [3]; 100 mg/kg vs 50 mg/kg of compound 2, mean±SEM, P<0.05) | Cerebral infarction volume reduced compared with the model group (MCAO model mice [3]; 200 mg/kg via tail vein at 0, 1, 2 days after reperfusion, P<0.05) | Neurological function (mNSS 14-point scale) compared with the compound 1 group (MCAO model mice [4]; compound 2 100 mg/kg vs compound 1 50 mg/kg) | Neurological function (mNSS 14-point scale) compared with MCAO group (MCAO model mice [4]; day 1 to day 7 of reperfusion, 100 mg/kg tail vein) | Mortality rate (survival curve) compared with MCAO group (MCAO model mice [5]) | GFAP protein expression reduced compared with the compound 1 group (GFAP; 72 h, compound 2 100 mg/kg vs compound 1 50 mg/kg, P<0.05) | IL-1β mRNA expression compared with MCAO group (IL-1β [6]) | Decrease of IL-6 mRNA expression compared with MCAO group (IL-6) |
| --- | --- | --- | --- | --- | --- | --- | --- | --- | --- | --- | --- | --- | --- | --- | --- |
| O=C(O)c1cc(O)ccc1O [compound 1] | 25±10% | reduced to varying degrees | – | – | – | – | – | – | – | – | – | – | – | – | – |
| O=C(O)c1cc(OP(=O)(O)O)ccc1OP(=O)(O)O [compound 2] | 43±12% | 32±9% | no significant difference | most significant decrease | decreased significantly | significantly decreased | 27.17±5.18% | 26.22±4.68% | 16.19±3.56% | significantly improved | improved significantly | significantly improved the mortality rate | 45±10% | significantly reduced | 51±8% |
